Assay results as given in ChEMBL document CHEMBL1201862, “PubChem BioAssay data set” (2004).
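These data come from cells grown in 96-well plates and exposed to compound for 48 hours at five concentrations. GI50 marks 50% less growth.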 Calls of active or inactive are those of the source. No stated cut-off is given here; in the data, active = GI50 up to about 1.1 µM and inactive = higher.

What was measured:
Assay in all cases: NCI anticancer screen, dose series, 48 h
[1] = system: MDA-MB-435
[2] = system: SNB-19
[3] = system: LOX IMVI
[4] = system: Hs-578T
[5] = system: T47D
[6] = system: NCI-H460
[7] = system: NCI/ADR-RES
[8] = system: SNB-75
[9] = system: MCF7
[10] = system: NCI-H226
[11] = system: MOLT-4
[12] = system: RPMI-8226
[13] = system: HT-29
[14] = system: COLO 205
[15] = system: HOP-92
[16] = system: SF-295
[17] = system: EKVX
[18] = system: Malme-3M
[19] = system: SK-MEL-28
[20] = system: M14

SMILES: COc1cc(/C=C2\Cc3cc(OC)c(OC)cc3C2=O)cc(OC)c1
- GI50 [1]: 1.04 µM (active)
- GI50 [2]: 25.8 µM (inactive)
- GI50 [3]: > 55.7 µM (inactive)
- GI50 [4]: 22 µM (inactive)
- GI50 [5]: > 100 µM (inactive)
- GI50 [6]: 15.1 µM (inactive)
- GI50 [7]: 0.904 µM (active)
- GI50 [8]: 9.53 µM (inactive)
- GI50 [9]: > 86.5 µM (inactive)
- GI50 [10]: > 100 µM (inactive)
- GI50 [11]: > 100 µM (inactive)
- GI50 [12]: > 33.6 µM (inactive)
- GI50 [13]: > 100 µM (inactive)
- GI50 [14]: > 46.7 µM (inactive)
- GI50 [15]: 22.8 µM (inactive)
- GI50 [16]: 4.2 µM (inactive)
- GI50 [17]: > 100 µM (inactive)
- GI50 [18]: 15.8 µM (inactive)
- GI50 [19]: > 100 µM (inactive)
- GI50 [20]: > 100 µM (inactive)

SMILES: Cc1ccc(-c2c3nc(c(-c4ccc(C)cc4)c4ccc([nH]4)c(-c4ccc(OCC5COC(C)(C)O5)cc4)c4nc(c(-c5ccc(C)cc5)c5ccc2[nH]5)C=C4)C=C3)cc1 (stereo not given)
- GI50 [1]: > 31.6 µM (inactive)
- GI50 [2]: > 31.6 µM (inactive)
- GI50 [3]: > 31.6 µM (inactive)
- GI50 [4]: 10.3 µM (inactive)
- GI50 [5]: > 31.6 µM (inactive)
- GI50 [6]: > 31.6 µM (inactive)
- GI50 [7]: > 31.6 µM (inactive)
- GI50 [8]: 10.2 µM (inactive)
- GI50 [9]: > 31.6 µM (inactive)
- GI50 [10]: > 31.6 µM (inactive)
- GI50 [11]: > 31.6 µM (inactive)
- GI50 [12]: > 100 µM (inactive)
- GI50 [13]: > 31.6 µM (inactive)
- GI50 [14]: > 31.6 µM (inactive)
- GI50 [15]: > 100 µM (inactive)
- GI50 [16]: 20.5 µM (inactive)
- GI50 [17]: 13.5 µM (inactive)
- GI50 [18]: > 31.6 µM (inactive)
- GI50 [19]: > 31.6 µM (inactive)
- GI50 [20]: > 31.6 µM (inactive)

SMILES: CCC(=S)N(C)O
- GI50 [1]: 15.6 µM (inactive)
- GI50 [2]: 63.5 µM (inactive)
- GI50 [3]: 10.6 µM (inactive)
- GI50 [4]: > 100 µM (inactive)
- GI50 [5]: 46.1 µM (inactive)
- GI50 [6]: 10.1 µM (inactive)
- GI50 [7]: 17.1 µM (inactive)
- GI50 [8]: 41 µM (inactive)
- GI50 [9]: 3.71 µM (inactive)
- GI50 [10]: 54.7 µM (inactive)
- GI50 [11]: 1.88 µM (inactive)
- GI50 [12]: 0.828 µM (active)
- GI50 [13]: 0.839 µM (active)
- GI50 [14]: 0.634 µM (active)
- GI50 [15]: > 85.9 µM (inactive)
- GI50 [16]: 34.2 µM (inactive)
- GI50 [17]: 16.5 µM (inactive)
- GI50 [18]: 53.5 µM (inactive)
- GI50 [19]: 57.4 µM (inactive)
- GI50 [20]: 17.8 µM (inactive)

SMILES: COc1ccc(SCc2cc(OCc3ccccc3)c(OCc3ccccc3)c(OCc3ccccc3)c2)cc1
- GI50 [1]: 1.76 µM (inactive)
- GI50 [2]: 1.72 µM (inactive)
- GI50 [3]: 1.54 µM (inactive)
- GI50 [4]: 2.12 µM (inactive)
- GI50 [5]: 2.69 µM (inactive)
- GI50 [6]: 2.38 µM (inactive)
- GI50 [7]: 1.71 µM (inactive)
- GI50 [8]: 1.58 µM (inactive)
- GI50 [9]: 1.71 µM (inactive)
- GI50 [10]: 1.9 µM (inactive)
- GI50 [11]: 1.56 µM (inactive)
- GI50 [12]: 2.84 µM (inactive)
- GI50 [13]: 1.52 µM (inactive)
- GI50 [14]: 2.85 µM (inactive)
- GI50 [15]: 1.65 µM (inactive)
- GI50 [16]: 1.87 µM (inactive)
- GI50 [17]: 2 µM (inactive)
- GI50 [18]: 1.83 µM (inactive)
- GI50 [19]: 2.07 µM (inactive)
- GI50 [20]: 1.92 µM (inactive)

SMILES: O=C(O)CCC(NC(=O)/C(=C/c1ccccc1)NC(=O)c1ccccc1)C(=O)O (stereo not given)
- GI50 [1]: > 100 µM (inactive)
- GI50 [2]: > 100 µM (inactive)
- GI50 [3]: > 100 µM (inactive)
- GI50 [4]: > 100 µM (inactive)
- GI50 [5]: > 100 µM (inactive)
- GI50 [6]: > 100 µM (inactive)
- GI50 [7]: > 100 µM (inactive)
- GI50 [8]: > 100 µM (inactive)
- GI50 [9]: > 100 µM (inactive)
- GI50 [10]: > 100 µM (inactive)
- GI50 [11]: > 100 µM (inactive)
- GI50 [12]: > 100 µM (inactive)
- GI50 [13]: > 100 µM (inactive)
- GI50 [14]: > 100 µM (inactive)
- GI50 [15]: > 100 µM (inactive)
- GI50 [16]: > 100 µM (inactive)
- GI50 [17]: > 100 µM (inactive)
- GI50 [18]: > 100 µM (inactive)
- GI50 [19]: > 100 µM (inactive)
- GI50 [20]: > 100 µM (inactive)
